In PubChem BioAssay (NCI):
Values joined by “and” are separate entries in the source; they are usually repeats but may differ in a detail not shown here. Identical values can stand only once.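 Cells were grown in 96-well plates and exposed to each compound for 48 hours at five concentrations; endpoints were interpolated linearly between bracketing concentrations, or set to the highest concentration if not reached. At the GI50, growth is halved. TGI: concentration producing complete growth inhibition.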

Experiments:
Experiment in all cases: NCI tumour cell line growth inhibition, 48 h
[1] = test system: HCC-2998 colon
[2] = test system: SNB-19 CNS
[3] = test system: OVCAR-8 ovarian
[4] = test system: NCI/ADR-RES ovarian
[5] = test system: CCRF-CEM leukemia
[6] = test system: SK-OV-3 ovarian
[7] = test system: SK-MEL-2 melanoma
[8] = test system: SK-MEL-5 melanoma
[9] = test system: UACC-62 melanoma
[10] = test system: HOP-92 NSCLC
[11] = test system: U251 CNS
[12] = test system: NCI-H522 lung
[13] = test system: CAKI-1 renal
[14] = test system: OVCAR-3 ovarian
[15] = test system: MALME-3M melanoma
[16] = test system: SN12C renal
[17] = test system: TK-10 renal
[18] = test system: SW-620 colon
[19] = test system: NCI-H226 lung
[20] = test system: HS 578T breast
[21] = test system: SF-539 CNS
[22] = test system: DU-145 prostate
[23] = test system: ACHN renal
[24] = test system: MOLT-4 leukemia
[25] = test system: HOP-62 NSCLC
[26] = test system: BT-549 breast
[27] = test system: 786-0 renal
[28] = test system: NCI-H460 lung
[29] = test system: A498 renal
[30] = test system: SF-295 CNS
[31] = test system: LOX IMVI melanoma
[32] = test system: SK-MEL-28 melanoma
[33] = test system: SF-268 CNS
[34] = test system: EKVX NSCLC
[35] = test system: MDA-MB-231 breast
[36] = test system: NCI-H23 lung
[37] = test system: HCT-116 colon
[38] = test system: T-47D breast
[39] = test system: KM12 colon
[40] = test system: PC-3 prostate
[41] = test system: RXF 393 renal
[42] = test system: UACC-257 melanoma
[43] = test system: UO-31 renal
[44] = test system: HT29 colon
[45] = test system: OVCAR-4 ovarian
[46] = test system: A549 NSCLC
[47] = test system: MCF7 breast
[48] = test system: HL-60(TB) leukemia
[49] = test system: OVCAR-5 ovarian
[50] = test system: IGROV1 ovarian
[51] = test system: MDA-MB-468 breast
[52] = test system: SNB-75 CNS

In the case of Cn1cc(-c2cc3nc(-c4cn(C)c5ncccc45)cc(N)n3n2)c2ccccc21, the GI50 [1] is reported as 2.26 µM, the TGI [1] is reported as 5.44 µM and the GI50 [2] is reported as 5.11 µM. For the same molecule, the TGI [2] was 26.7 µM, the GI50 [3] was 5.63 µM and the TGI [3] was > 100 µM. For the same molecule, the GI50 [4] was 5.02 µM, the TGI [4] was 24.9 µM and the GI50 [5] was 2.52 µM. For the same molecule, the TGI [5] was 6.49 µM, the GI50 [6] was 21 µM and the TGI [6] was 69.3 µM. The GI50 [7] was 2.17 µM, the TGI [7] was 5.5 µM and the GI50 [8] was 3.44 µM. It also gave a TGI [8] of 15.7 µM, a GI50 [9] of 1.73 µM and a TGI [9] of 3.34 µM. The GI50 [10] was 2.93 µM, the TGI [10] was 8.33 µM and the GI50 [11] was 3.16 µM. For the same molecule, the TGI [11] was 21.4 µM, the GI50 [12] was 2.35 µM and the TGI [12] was 5.91 µM. The GI50 [13] was 3.74 µM, the TGI [13] was 19.1 µM and the GI50 [14] was 3.08 µM. The TGI [14] was 11.4 µM, the GI50 [15] was 1.86 µM and the TGI [15] was 3.3 µM. It also gave a GI50 [16] of 2.97 µM, a TGI [16] of 14.2 µM and a GI50 [17] of 11.6 µM. The TGI [17] was 51.6 µM, the GI50 [18] was 4.38 µM and the TGI [18] was > 100 µM. The GI50 [19] was 2.7 µM, the TGI [19] was 7.12 µM and the GI50 [20] was 2.48 µM. The TGI [20] was 8.08 µM, the GI50 [21] was 1.8 µM and the TGI [21] was 3.71 µM. For the same molecule, the GI50 [22] was 9.59 µM, the TGI [22] was 52.9 µM and the GI50 [23] was 2.6 µM. It also gave a TGI [23] of 7.42 µM, a GI50 [24] of 2.38 µM and a TGI [24] of 8.9 µM. For the same molecule, the GI50 [25] was 4.5 µM, the TGI [25] was 20.7 µM and the GI50 [26] was 10.2 µM. The TGI [26] was 24.3 µM, the GI50 [27] was 1.68 µM and the TGI [27] was 3.16 µM. For the same molecule, the GI50 [28] was 3.75 µM, the TGI [28] was 14.7 µM and the GI50 [29] was 17.6 µM. For the same molecule, the TGI [29] was 37 µM, the GI50 [30] was 1.73 µM and the TGI [30] was 3.63 µM. The GI50 [31] was 2.15 µM, the TGI [31] was 4.65 µM and the GI50 [32] was 1.71 µM. The TGI [32] was 3.12 µM, the GI50 [33] was 17.2 µM and the TGI [33] was > 100 µM. The GI50 [34] was 10.7 µM, the TGI [34] was 51.3 µM and the GI50 [35] was 2.99 µM. For the same molecule, the TGI [35] was 9.7 µM, the GI50 [36] was 10 µM and the TGI [36] was 41.2 µM. The GI50 [37] was 2.56 µM, the TGI [37] was 6.9 µM and the GI50 [38] was 5.77 µM. For the same molecule, the TGI [38] was 74.7 µM, the GI50 [39] was 3.84 µM and the TGI [39] was > 100 µM. It also gave a GI50 [40] of 5.52 µM, a TGI [40] of 55 µM and a GI50 [41] of 2.01 µM. It also gave a TGI [41] of 4.01 µM, a GI50 [42] of 1.83 µM and a TGI [42] of 3.71 µM. For the same molecule, the GI50 [43] was 4.77 µM, the TGI [43] was 40.9 µM and the GI50 [44] was 2.15 µM. For the same molecule, the TGI [44] was 6.22 µM, the GI50 [45] was 2.6 µM and the TGI [45] was 8.09 µM. The GI50 [46] was 4.6 µM, the TGI [46] was > 100 µM and the GI50 [47] was 3.38 µM. The TGI [47] was 24.2 µM, the GI50 [48] was 2.33 µM and the TGI [48] was 5.11 µM. It also gave a GI50 [49] of 8.81 µM, a TGI [49] of 98.9 µM and a GI50 [50] of 2.84 µM. The TGI [50] was 8.11 µM, the GI50 [51] was 2.43 µM and the TGI [51] was 7.76 µM. It also gave a GI50 [52] of 4.97 µM and a TGI [52] of 24.6 µM.
CCCCc1n(Cc2ccc3ccccc3n2)cc[n+]1Cc1ccc2ccccc2n1 was tested, and the GI50 [51] was 0.244 µM and the TGI [51] was 1.64 µM.
Work on S=C1SCN(Cc2ccccc2)CN1Cc1ccccc1 yielded a GI50 [51] of 1.2 µM and a TGI [51] of 17.1 µM.
With O=C(Nc1n[nH]c2nc(-c3ccc(O)cc3)c(Br)cc12)C1CC1 the GI50 [51] was 3.93 µM and the TGI [51] was 8.79 µM.
O=C(Nc1cn[nH]c1-c1nc2ccc(CN3CCOCC3)cc2[nH]1)NC1CC1 was tested, and the GI50 [51] was 0.0355 µM and 0.207 µM and the TGI [51] was 1.67 µM and 9.37 µM.
Work on CCCCOc1ccc(S(=O)(=O)N2CCN(c3nccc(N4CCOCC4)n3)CC2)cc1 yielded a GI50 [51] of 0.456 µM and a TGI [51] of 2.53 µM.
CCN1C(=O)N(CC)C2C1NN=c1s/c(=C\c3ccc(C(F)(F)F)cc3)c(=O)n12 (stereo not drawn) was tested, and the GI50 [51] was 0.318 µM and the TGI [51] was 24.2 µM.
O=C1c2ccccc2C(=O)c2c1oc1c2c(=O)[nH]c2ccc(Cl)cc21 gave a GI50 [51] of 0.249 µM and a TGI [51] of 0.868 µM.
With COc1ccc(C2CC(c3ccc(OC)cc3O)=NN2c2ccc(S(N)(=O)=O)cc2)cc1 (stereo not drawn) the GI50 [51] was 22.3 µM and the TGI [51] was > 100 µM.
With COc1ccc(-c2cc(-c3ccc(OC)cc3)nc(NCCCNc3ccnc4cc(Cl)ccc34)n2)cc1 the GI50 [51] was 1.27 µM and the TGI [51] was 2.79 µM.
C/C(CC(C)(C)N1CC1)=N\NC(=O)Nc1cccc2ccccc12 gave a GI50 [51] of 1.92 µM and a TGI [51] of 4.61 µM.
For COc1ccc(CNCCCN2C(=O)c3ccc4c5c(ccc(c35)C2=O)C(=O)N(CCCNCc2ccc(OC)c(OC)c2OC)C4=O)c(OC)c1OC, the GI50 [51] was 0.0793 µM and the TGI [51] was 0.151 µM.
O=C1/C(=C/c2ccc(F)cc2)CN(C(=O)C(Cl)Cl)C/C1=C\c1ccc(F)cc1 gave a GI50 [51] of 0.203 µM and a TGI [51] of 0.48 µM.
